Data taken from patent US20230088704A1, “A PHARMACEUTICAL COMBINATION FOR THE TREATMENT OF A CANCER” (ABILITY PHARMACEUTICALS S.L., priority 2020, published 2023).
Like-named read-outs stand apart in the source and are kept apart here.

What was measured:
JJN-3 cells = assay: Cell viability (MTT) and combination index, ABTL0812 with bortezomib; assay type: cell-based; conditions: ABTL0812 5 μM, Bortezomib 0.5 nM, alone or combined; 48h
Protocol: (§1) Methods: JJN-3 and OPM2 cells were seeded in 24-well plates and treated with ABTL0812 (5 μM), bortezomib (0.5 and 1 nM respectively) or a combination of both drugs and left in the incubator for 48h (0.5% FBS). Cell viability was studied by the MTT assay and combination index was determined to evaluate a possible synergism.
(§2) Cell viability was evaluated in all cases by MTT assay and the Combination Index (CI), to evaluate synergism, was calculated according to the method of Chou and Talalay (Chou 2006; Chou 2010), as follows: CI=(D)1/(Dx)1+(D)2/(Dx)2, where CI<1, =1, and >1 indicate synergism, additive effect, and antagonism, respectively. In the denominator, (Dx)1 is for D1 “alone” that inhibits a system x %, and (Dx)2 is for D2 “alone” that inhibits a system x %.

OPM2 cells = assay: as above; assay type: cell-based; conditions: ABTL0812 5 μM, Bortezomib 1 nM, alone or combined; 48h
Protocol: as §1, §2

Ishikawa cells [1] = assay type: in vivo; conditions: ABTL0812 oral 120 mg/kg/day; Doxorubicin 5 mg/kg i.p. once a week
Protocol: Methods: Mice were injected with 4×10^6 Ishikawa cells in one flank to induce tumor formation. […] ABTL0812 was administered by the oral route at 120 mg/kg/day. Doxorubicin 5 mg/kg was administered intra-peritoneally once a week. Tumor volume and body weight were monitored 3 times a week.

Ishikawa cells [2] = assay: Human endometrial cancer xenograft, ABTL0812 with olaparib; assay type: in vivo; conditions: ABTL0812 oral 120 mg/kg/day; Olaparib oral 50 mg/kg/day
Protocol: Methods: Mice were injected with 4×10^6 Ishikawa cells in one flank to induce tumor formation. […] Olaparib was administered by the oral route 50 mg/kg/day. Tumor volume and body weight were monitored 3 times a week.

PDL1 = PDL1 expression in cancer cells by flow cytometry (Example 6.2); assay type: cell-based, human; conditions: Panc-1 cells; ABTL0812 50 μM, IFNγ 2.5 ng/ml or both
Protocol: Methods: Human cancer cell lines were incubated with 100 μM of ABTL0812 during 48 hours and collected for staining with anti-PDL1 antibody labeled with a fluorophore. After staining of cells with anti-PDL1 antibody, cells were run on Flow Cytometry (Facs Canto) to analyzed PDL1 levels in cancer cells. Additionally, we incubated Panc-1 cells with ABTL0812 (50 μM), IFNγ (2.5 ng/ml), a master regulator of PDL1 expression or a combination with both. Then, cells were collected, stained with anti-PDL1 antibody and analyzed by Flow Cytometry for the expression of PDL1.

Ishikawa cells [3] = assay: Human endometrial cancer xenograft, ABTL0812 with bevacizumab; assay type: in vivo; conditions: ABTL0812 oral 120 mg/kg/day; Bevacizumab ip 100 μg/dose every four days
Protocol: Methods: Mice were injected with 4×10^6 Ishikawa cells in one flank to induce tumor formation. […] Bevacizumab was administered ip at 100 μg/dose, every four days up to four administration. Tumor volume and body weight were monitored 3 times a week.

CC(C)C[C@H](NC(=O)[C@H](Cc1ccccc1)NC(=O)c1cnccn1)B(O)O [Bortezomib, reference compound]
cell death (JJN-3 cells): ~15% | cell death (OPM2 cells): around 10%

COc1cccc2c1C(=O)c1c(O)c3c(c(O)c1C2=O)C[C@@](O)(C(=O)CO)C[C@@H]3O[C@H]1C[C@H](N)[C@H](O)[C@H](C)O1 [doxorubicin, reference compound]
tumor volume (Ishikawa cells [1]): significantly reduced tumor volume

O=C(c1cc(Cc2n[nH]c(=O)c3ccccc23)ccc1F)N1CCN(C(=O)C2CC2)CC1 [olaparib, reference compound]
tumor volume (Ishikawa cells [2]): significantly reduced tumor volume

IFNγ: well described master regulator of PDL1 expression [reference compound]
PDL1 levels (PDL1): significantly higher levels of PDL1 compared with ABTL0812

bevacizumab [reference compound]
tumor volume (Ishikawa cells [3]): significantly reduced tumor volume
